Data on two molecules can be found in patent publication US20210038589A1, “USES, COMPOSITIONS AND METHODS” (priority 2018, published 2021).

This experiment concerns pyramidal cell action potentials in hippocampal area CA3. Description: Concomitant LFP and single unit recordings: AP firing and spike-phase coupling after Aβ. It is filed as cell-based, mouse. The note with it: inhibitor applied after the application of Aβ. The protocol: Having studied the synaptic effects of two T-type Ca^2+ channel inhibitors, we then proceeded to examine their ability to modulate the synchronization of hippocampal neuronal activity. We performed concomitant recordings of field potentials and single unit recordings to analyze the synchronization of action potentials with the phase of the gamma oscillations (27). […] To determine the spike phase of PC during a gamma oscillation, spike-phase coupling was calculated. […] This is observed as a slight shift to the right in the AP-phase distribution (7A,D). The desynchronization of PC activity is also evidenced by the reduction of the summation vector length (Pmzd: control: 0.3764±0.048, Aβ: 0.226±0.05, n=7, p=0.0078, FIG. 7B; Penfl: control: 0.3976±0.054, Aβ: 0.2661±0.05566, n=8, p=0.0078, FIG. 7E), which is represented by the change in the length of the arrow in FIGS. 7A and D.
Patch-clamp (whole-cell) recordings were performed from visually identified CA3 PC using The SliceScope (Scientifica, UK). Action Potentials (APs) were recorded from pyramidal cells in area CA3 as single units (submerged chamber) using standard ACSF-containing patch electrodes. For EPSC recordings (Vh=−70 mV) a potassium-based intracellular solution was used (in mM): 122.5 K-gluconate, 17.5 KCl, 4 ATPNa, 0.4 GTPNa, 10 HEPES, 0.2 EGTA, 2 MgCl, set to pH 7.2-7.3 with KOH, osmolarity 270-280 mOsm. For IPSC recordings (Vh=0 mV) a cesium-based intracellular solution was used (in mM): 140 CsMeSO4, 10 HEPES, 0.2 EGTA, 4 MGCl, 2 ATPNa, 0.2 GTPNa, 5 QX-314, set to pH 7.2-7.4 with CsOH, osmolarity 270-280 mOsm.
Spike phase-coupling analysis was performed on concomitant LFP recordings and single unit recordings using MATLAB custom-written routines in order to relate the PC spiking activity to ongoing gamma oscillations (48). To do this LFP recordings were pre-processed using a band pass filter set to 20-60 Hz (highpass: RC-single pole, lowpass: RC-single pole) using Clampfit 10.7. AP were detected using an amplitude threshold and the instantaneous phase of gamma oscillation was calculated using a Hilbert transform in order to determine the phase-angle at which each action potential occurred during ongoing oscillations. Phase-angles and gamma oscillations-phases were represented in polar plots and expressed in radians with the peak of the oscillation cycle corresponding to 0π and the valley corresponding to ±π in the polar plots. In order to search for the synchronization level of AP firing, AP phase-angles frequency-distribution were normalized, a Gaussian function was fitted and the half-width at half-maximum was then calculated as a measure of the synchronization level: the more AP are fired on the same phase-angle the more synchronized the neuronal activity is. The preferred phase-angle was calculated by averaging the AP phase-angles distribution of all the experiments and is represented by an arrow in the polar-plots. To test whether neurons fired in a phase-related manner all concomitant recordings were tested for circular uniformity using Rayleigh's test. Only recording with p values below 0.05 were considered for the analysis.

For the molecule `OC1(c2ccc(Cl)c(C(F)(F)F)c2)CCN(CCCC(c2ccc(F)cc2)c2ccc(F)cc2)CC1` [Penfluridol], the “AP count (AP firing frequency)” value is recorded as 1.79±0.43 Hz, the preferred phase angle is recorded as 4.09±0.2 radians and the summation vector length is on record as 0.355±0.05.
As to `O=c1[nH]c2ccccc2n1C1CCN(CCCC(c2ccc(F)cc2)c2ccc(F)cc2)CC1` [Pimozide], the “AP count (AP firing frequency)” value was determined as 2.23±0.51 Hz, the preferred phase angle is recorded as 4.180±0.15 radians and the summation vector length came to 0.335±0.072.
